# Test results taken from US9115092B2, “Substituted quinazoline and pyrido-pyrimidine derivatives” (Asana Biosciences, LLC, priority 2010, dated 2015).
# Key:
# PC3 cells [1] = experiment: XTT assay for cell viability, PC3 cells; type: cell-based, human; conditions: Homo sapiens, PC-3, cell viability
# Outline: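 PC3 cells seeded at 1000 cells/well, grown 24 h, then exposed to serial dilutions of compound for 96 h. Viability read by XTT dye at 37° C, absorbance 465 nm. EC50 from sigmoidal dose-response fit.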
# [2] = test system: pS6RP(S235/236), PC3 cells; experiment: In-cell Western assay, pS6RP(S235/236) in PC3 cells; type: cell-based, human; conditions: Homo sapiens, PC-3, In-cell Western
# Outline: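 Overnight-seeded PC3 cells were treated 2 h with serially diluted compound, then fixed and immunostained with phospho-specific primary antibodies and Eu-labelled secondary. Time-resolved Eu signal read at 615 nm (ex 340 nm), normalised by Hoechst 33258 staining (ex 355/em 460 nm); IC50 from sigmoidal dose-response fit.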
# PC3 cells [3] = experiment: In vivo efficacy study (tumor growth suppression), PC3 xenograft; conditions: PC3 xenograft mice, after 14 days of dosing at 40 mg/kg bid po
# Procedure: PC3 cells were cultured at 37° C. in a 5% CO2 incubator using Hams F12 K medium. Five million (5×10^6) cells were implanted subcutaneously to the right flank of athymic male mice (Harlan, age: 6-7 weeks, weight: about 20 g). Tumor bearing mice were randomized when the tumor volume reached about 100 mm^3. Ten mice were used per group. Dosage regimen of compounds of formula (I) were scheduled on the basis of the PK, PK-PD and maximum tolerated dose studies. Compounds of formula (I) were formulated using HPCD in PBS, pH 7.4 and dosed orally (dose volume, 10 mL/kg). Solutions of the compounds were prepared immediately before dosing the animals. A vehicle control and a reference compound were included along with test compounds.
# The tumor size was measured on alternate days using Vernier® calipers. Assuming tumors to be ellipsoid, the tumor volume was calculated using the formula: V=(D×d^2)/2 […]
# Changes in tumor volume (Δ volumes) for each treated (T) and control (C) group were calculated by subtracting the mean tumor volume on the first day of treatment (starting day) from the mean tumor volume on the specified observation day. […]
# Percentage tumor growth inhibition was calculated as [100−% T/C]. Percentage body weight change was calculated as [(Body weight on specified observation day−Body weight on starting day)/Body weight on starting day]×100. […]
# [4] = molecular target: T1, PI3Kα (wild-type), P110/P85α (Homo sapiens, UniProt P42336); experiment: PI3 Kinase TR-FRET assay, PI3Kα (wild-type); type: biochemical
# T1 construct: made in house; host or cells: SF9 insect cells
# Outline: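 Sf9-expressed His-purified P110/P85α (5 ng) preincubated 60 min RT with compound and PIP2 in buffer with 40 mM MgCl2, 5 mM DTT; reaction started with ATP (PIP2 and ATP both 10 μM), 30 min RT. PIP3 detected by TR-FRET displacement, 665/615 nm ratio; IC50 from dose-response curves.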
# mTOR kinase = molecular target: T2, mTOR kinase (Homo sapiens, UniProt P42345); experiment: mTOR kinase TR-FRET assay; type: biochemical; conditions: read-out: mTO R
# T2 construct: purchased Millipore, USA
# Outline: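 Compounds preincubated 60 min with mTOR (5 ng) in HEPES pH 7.5, EGTA, MnCl2; ULight-p70 S6K Thr389 peptide (50 nM) and ATP (20 μM) then added, 60 min at room temperature. EDTA-stopped, Eu-anti-phospho antibody detection by TR-FRET (665/615 nm); IC50 from variable-slope sigmoidal fit.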
# T1 sequence (P42336 whole entry): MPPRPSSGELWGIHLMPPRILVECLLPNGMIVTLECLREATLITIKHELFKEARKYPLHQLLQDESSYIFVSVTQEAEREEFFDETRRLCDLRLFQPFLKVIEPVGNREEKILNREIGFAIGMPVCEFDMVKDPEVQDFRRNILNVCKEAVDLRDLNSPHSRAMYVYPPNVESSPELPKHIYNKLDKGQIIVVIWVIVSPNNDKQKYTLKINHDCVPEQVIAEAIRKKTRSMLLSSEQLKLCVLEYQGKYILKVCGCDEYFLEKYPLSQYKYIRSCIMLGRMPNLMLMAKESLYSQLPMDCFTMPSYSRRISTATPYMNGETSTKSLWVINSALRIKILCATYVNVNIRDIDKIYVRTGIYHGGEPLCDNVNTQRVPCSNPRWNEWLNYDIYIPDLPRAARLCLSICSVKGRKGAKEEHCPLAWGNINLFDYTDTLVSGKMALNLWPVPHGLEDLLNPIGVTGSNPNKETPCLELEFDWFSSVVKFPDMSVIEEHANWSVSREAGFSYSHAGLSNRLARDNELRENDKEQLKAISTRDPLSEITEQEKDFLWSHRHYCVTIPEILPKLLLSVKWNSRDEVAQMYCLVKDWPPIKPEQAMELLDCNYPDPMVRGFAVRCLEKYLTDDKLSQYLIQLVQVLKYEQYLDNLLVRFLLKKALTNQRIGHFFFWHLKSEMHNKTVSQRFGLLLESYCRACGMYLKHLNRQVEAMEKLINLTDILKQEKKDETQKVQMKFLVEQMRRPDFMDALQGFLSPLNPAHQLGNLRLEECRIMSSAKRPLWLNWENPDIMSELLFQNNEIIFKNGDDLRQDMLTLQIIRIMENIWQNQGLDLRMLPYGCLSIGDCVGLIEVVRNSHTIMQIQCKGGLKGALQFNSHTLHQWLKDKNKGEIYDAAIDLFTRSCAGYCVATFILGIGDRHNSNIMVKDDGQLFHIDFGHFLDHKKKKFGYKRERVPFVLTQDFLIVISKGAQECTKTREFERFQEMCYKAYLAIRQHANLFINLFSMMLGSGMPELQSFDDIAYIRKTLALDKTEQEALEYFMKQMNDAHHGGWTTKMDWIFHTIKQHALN
# T1 sequence (P27986 whole entry partner): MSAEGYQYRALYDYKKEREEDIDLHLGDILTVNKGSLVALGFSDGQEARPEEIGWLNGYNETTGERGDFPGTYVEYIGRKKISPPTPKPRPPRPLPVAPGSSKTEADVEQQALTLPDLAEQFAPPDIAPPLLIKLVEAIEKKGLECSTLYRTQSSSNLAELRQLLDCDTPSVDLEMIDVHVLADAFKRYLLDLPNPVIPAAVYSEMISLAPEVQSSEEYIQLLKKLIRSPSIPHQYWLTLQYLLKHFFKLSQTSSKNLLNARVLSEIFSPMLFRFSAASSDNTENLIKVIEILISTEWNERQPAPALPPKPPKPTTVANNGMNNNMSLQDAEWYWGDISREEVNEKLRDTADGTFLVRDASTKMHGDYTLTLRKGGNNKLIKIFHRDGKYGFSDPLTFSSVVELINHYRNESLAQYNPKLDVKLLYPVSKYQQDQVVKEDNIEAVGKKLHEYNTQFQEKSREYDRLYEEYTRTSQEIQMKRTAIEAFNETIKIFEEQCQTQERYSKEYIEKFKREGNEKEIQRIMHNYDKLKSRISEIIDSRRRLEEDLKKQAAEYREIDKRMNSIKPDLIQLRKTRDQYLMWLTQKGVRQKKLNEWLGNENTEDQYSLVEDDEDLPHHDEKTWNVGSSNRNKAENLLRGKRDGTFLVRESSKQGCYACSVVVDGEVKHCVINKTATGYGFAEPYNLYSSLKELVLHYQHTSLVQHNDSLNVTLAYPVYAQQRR
IC50 (PC3 cells [1]) [µM],IC50 [2] [µM],IC50 [4] [µM],IC50 (mTOR kinase) [µM],Structure (SMILES),tumor growth inhibition relative to vehicle control group (PC3 cells [3])
0.201 to 10,0.201 to 10,< 0.05,< 0.05,"CN(C)C(=O)c1ccc(NC(=O)Nc2ccc(-c3nc(N4CCOCC4)c4ncc(-c5cnn(C)c5)cc4n3)cc2F)cc1 [Example 82, 4-(3-(2-fluoro-4-(7-(1-methyl-1H-pyrazol-4-yl)-4-morpholino-pyrido[3,2-d]pyrimidin-2-yl)phenyl)ureido)-N,N-dimethyl-benzamide]",about 60%
0.201 to 10,0.201 to 10,< 0.05,< 0.05,"CN(C)C(=O)c1ccc(NC(=O)Nc2ccc(-c3nc(N4CCOCC4)c4ccc(-c5ccc(CO)o5)cc4n3)cc2)cc1 [Example 183, 4-(3-(4-(7-(5-(hydroxymethyl)furan-2-yl)-4-morpholino-quinazolin-2-yl)phenyl)ureido)-N,N-dimethyl-benzamide]",about 60%
